In patent publication US12410161B2, “Tetrahydrobenzo-quinoline sulfonamides derivative compounds” (UCB Biopharma SRL, priority 2019, dated 2025):

Assay: Thermal stability note in synthesis of Example 2
Assay type: physicochemical
Conditions: observation on isolated title compound
Protocol: To a solution of Intermediate 27 (42 mg, 0.068 mmol) in N,N-dimethylformamide (1.5 mL) a solution of formic hydrazide (14 mg, 0.229 mmol) in N,N-dimethylformamide (0.3 mL) followed by mercury(II) chloride (62 mg, 0.229 mmol) were introduced. After 5 minutes stirring at room temperature under an atmosphere of nitrogen, a solution of triethylamine (23 mg, 0.229 mmol) in N,N-dimethylformamide (0.2 mL) was introduced and the reaction warmed to 80° C. for 1.7 hours. After cooling to room temperature, the reaction mixture was diluted with dichloromethane (10 mL), kieselguhr (1.0 g) was introduced, and the suspension stirred for 10 minutes. The suspension was then filtered and the filter-cake washed with dichloromethane (10 mL). Evaporation of the combined filtrates in-vacuo furnished a residue which was purified by low pH preparative liquid chromatography to furnish the title compound (2.3 mg at 88% purity LCMS-UV215, 5% yield) as a colourless solid. LCMS [m+H]^+ 553, RT 2.07 min (Method 3).

With `Cc1cc(Nc2nncn2C2CCc3cc4cnc(C5CC5)cc4c(S(=O)(=O)NCC(C)(C)F)c3C2)n(C)n1` (stereo not shown) [Example 2, 3-cyclopropyl-7-[3-[(2,5-dimethylpyrazol-3-yl)amino]-1,2,4-triazol-4-yl]-N-(2-fluoro-2-methylpropyl)-6,7,8,9-tetrahydrobenzo[g]isoquinoline-5-sulfonamide] the thermal stability was “thermally unstable”.
